Test results: PubChem BioAssay (NCI)
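Compound exposure: 48 hours, 5 concentrations, 96-well plates. TGI is the concentration that stops growth completely.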

Key:
Assay in all cases: inhibition of tumour cell growth, NCI panel, 48 h
[1] = tested on: KM12 colon
[2] = tested on: NCI-H522 lung
[3] = tested on: IGROV1 ovarian
[4] = tested on: UACC-257 melanoma
[5] = tested on: SW-620 colon
[6] = tested on: M14 melanoma
[7] = tested on: NCI-H226 lung
[8] = tested on: UO-31 renal
[9] = tested on: ACHN renal
[10] = tested on: OVCAR-3 ovarian
[11] = tested on: HT29 colon
[12] = tested on: COLO 205 colon
[13] = tested on: KM20L2 colon
[14] = tested on: LXFL 529 NSCLC
[15] = tested on: SF-539 CNS
[16] = tested on: SF-295 CNS
[17] = tested on: SK-OV-3 ovarian
[18] = tested on: SK-MEL-28 melanoma
[19] = tested on: OVCAR-4 ovarian
[20] = tested on: A498 renal
[21] = tested on: RPMI-8226 leukemia
[22] = tested on: MOLT-4 leukemia
[23] = tested on: K-562 leukemia
[24] = tested on: CCRF-CEM leukemia
[25] = tested on: SNB-19 CNS
[26] = tested on: LOX IMVI melanoma
[27] = tested on: M19-MEL melanoma
[28] = tested on: OVCAR-5 ovarian
[29] = tested on: A549 NSCLC
[30] = tested on: UACC-62 melanoma
[31] = tested on: CAKI-1 renal
[32] = tested on: HOP-62 NSCLC
[33] = tested on: HCC-2998 colon
[34] = tested on: SR leukemia
[35] = tested on: NCI-H23 lung
[36] = tested on: HCT-15 colon
[37] = tested on: RXF 393 renal
[38] = tested on: XF 498 CNS
[39] = tested on: MALME-3M melanoma
[40] = tested on: SF-268 CNS
[41] = tested on: DMS 273 small cell lung
[42] = tested on: NCI-H460 lung
[43] = tested on: SN12C renal
[44] = tested on: SK-MEL-5 melanoma
[45] = tested on: HL-60(TB) leukemia
[46] = tested on: DMS 114 small cell lung
[47] = tested on: EKVX NSCLC
[48] = tested on: HCT-116 colon
[49] = tested on: OVCAR-8 ovarian
[50] = tested on: U251 CNS
[51] = tested on: SNB-78 CNS
[52] = tested on: 786-0 renal
[53] = tested on: TK-10 renal
[54] = tested on: SK-MEL-2 melanoma
[55] = tested on: SNB-75 CNS
[56] = tested on: DLD-1 colon
[57] = tested on: HOP-92 NSCLC

**Q.** Which results are given for COC(=O)c1nn(-c2ccccc2)c(=O)cc1N=[N+]=[N-]?
**A.** TGI [1]: > 100 µM; TGI [2]: > 100 µM; TGI [3]: > 100 µM; TGI [4]: > 100 µM; TGI [5]: > 100 µM; TGI [6]: > 100 µM; TGI [7]: > 100 µM; TGI [8]: > 100 µM; TGI [9]: > 100 µM; TGI [10]: > 100 µM; TGI [11]: > 100 µM; TGI [12]: > 100 µM; TGI [13]: > 100 µM; TGI [14]: > 100 µM; TGI [15]: > 100 µM; TGI [16]: > 100 µM; TGI [17]: > 100 µM; TGI [18]: > 100 µM; TGI [19]: > 100 µM; TGI [20]: > 100 µM; TGI [21]: > 100 µM; TGI [22]: > 100 µM; TGI [23]: > 100 µM; TGI [24]: > 100 µM; TGI [25]: > 100 µM; TGI [26]: > 100 µM; TGI [27]: > 100 µM; TGI [28]: > 100 µM; TGI [29]: > 100 µM; TGI [30]: > 100 µM; TGI [31]: > 100 µM; TGI [32]: > 100 µM; TGI [33]: > 100 µM; TGI [34]: > 100 µM; TGI [35]: > 100 µM; TGI [36]: > 100 µM; TGI [37]: > 100 µM; TGI [38]: > 100 µM; TGI [39]: > 100 µM; TGI [40]: > 100 µM; TGI [41]: > 100 µM; TGI [42]: > 100 µM; TGI [43]: > 100 µM; TGI [44]: > 100 µM; TGI [45]: > 100 µM; TGI [46]: > 100 µM; TGI [47]: > 100 µM; TGI [48]: > 100 µM; TGI [49]: > 100 µM; TGI [50]: > 100 µM; TGI [51]: > 100 µM; TGI [52]: > 100 µM; TGI [53]: > 100 µM

**Q.** What does the source list for Cc1ccc(NC(=O)C(=O)C(C2C(C)CC(=O)C2CC(=O)O)[N+](=O)[O-])cc1 (centres undefined)?
**A.** TGI [1]: > 100 µM; TGI [3]: > 100 µM; TGI [4]: > 100 µM; TGI [5]: > 100 µM; TGI [6]: > 100 µM; TGI [7]: > 100 µM; TGI [54]: > 100 µM; TGI [8]: > 100 µM; TGI [9]: > 100 µM; TGI [10]: > 100 µM; TGI [11]: > 100 µM; TGI [12]: > 100 µM; TGI [13]: > 100 µM; TGI [14]: > 100 µM; TGI [55]: > 100 µM; TGI [15]: > 100 µM; TGI [16]: > 100 µM; TGI [17]: > 100 µM; TGI [18]: > 100 µM; TGI [19]: > 100 µM; TGI [20]: > 100 µM; TGI [21]: > 100 µM; TGI [22]: > 100 µM; TGI [23]: > 100 µM; TGI [24]: > 100 µM; TGI [25]: > 100 µM; TGI [26]: > 100 µM; TGI [56]: > 100 µM; TGI [28]: > 100 µM; TGI [29]: > 100 µM; TGI [30]: > 100 µM; TGI [31]: > 100 µM; TGI [32]: > 100 µM; TGI [33]: > 100 µM; TGI [34]: > 100 µM; TGI [35]: > 100 µM; TGI [36]: > 100 µM; TGI [37]: > 100 µM; TGI [38]: > 100 µM; TGI [39]: > 100 µM; TGI [40]: > 100 µM; TGI [42]: > 100 µM; TGI [43]: > 100 µM; TGI [44]: > 100 µM; TGI [45]: > 100 µM; TGI [46]: > 100 µM; TGI [47]: > 100 µM; TGI [57]: > 100 µM; TGI [48]: > 100 µM; TGI [49]: > 100 µM; TGI [50]: > 100 µM; TGI [51]: > 100 µM; TGI [52]: > 100 µM; TGI [53]: > 100 µM

**Q.** CC1=C(C(=O)Nc2cc(F)c(F)cc2F)C(c2ccc3c(c2)OCO3)C(C(=O)Nc2cc(F)c(F)cc2F)=C(C)N1 was tested. Which TGI [1] did it give?
**A.** 46 µM

**Q.** What about the TGI [2] of the same compound?
**A.** 41.6 µM

**Q.** What about the TGI [3] of the same compound?
**A.** > 100 µM

**Q.** And the TGI [4]?
**A.** 71.5 µM

**Q.** And the TGI [5]?
**A.** > 100 µM

**Q.** What about the TGI [6] of the same compound?
**A.** > 100 µM

**Q.** What about the TGI [7] of the same compound?
**A.** 85.3 µM

**Q.** What about the TGI [54] of the same compound?
**A.** 46.7 µM

**Q.** What about the TGI [8] of the same compound?
**A.** 40.8 µM

**Q.** And the TGI [9]?
**A.** 60.6 µM

**Q.** What about the TGI [10] of the same compound?
**A.** 40.6 µM

**Q.** What about the TGI [11] of the same compound?
**A.** 61.4 µM

**Q.** And the TGI [12]?
**A.** 53.6 µM

**Q.** What about the TGI [13] of the same compound?
**A.** 62.5 µM

**Q.** And the TGI [14]?
**A.** 80.4 µM

**Q.** What about the TGI [55] of the same compound?
**A.** 45.4 µM

**Q.** What about the TGI [15] of the same compound?
**A.** 87 µM

**Q.** And the TGI [16]?
**A.** 48.9 µM

**Q.** What about the TGI [17] of the same compound?
**A.** 65.3 µM

**Q.** What about the TGI [18] of the same compound?
**A.** > 100 µM

**Q.** What about the TGI [19] of the same compound?
**A.** 77.7 µM

**Q.** And the TGI [20]?
**A.** 65.2 µM

**Q.** What about the TGI [21] of the same compound?
**A.** 52.9 µM

**Q.** What about the TGI [22] of the same compound?
**A.** 46.5 µM

**Q.** What about the TGI [23] of the same compound?
**A.** 53.8 µM

**Q.** And the TGI [24]?
**A.** 55.1 µM

**Q.** And the TGI [25]?
**A.** > 100 µM

**Q.** And the TGI [26]?
**A.** 35.3 µM

**Q.** What about the TGI [27] of the same compound?
**A.** 67 µM

**Q.** And the TGI [56]?
**A.** 75.1 µM

**Q.** What about the TGI [28] of the same compound?
**A.** 59.9 µM

**Q.** What about the TGI [29] of the same compound?
**A.** 79.1 µM

**Q.** And the TGI [31]?
**A.** 43.5 µM

**Q.** What about the TGI [32] of the same compound?
**A.** 65.1 µM

**Q.** What about the TGI [33] of the same compound?
**A.** 39 µM

**Q.** What about the TGI [35] of the same compound?
**A.** 71.1 µM

**Q.** What about the TGI [37] of the same compound?
**A.** 35.6 µM

**Q.** And the TGI [38]?
**A.** 26.8 µM

**Q.** What about the TGI [39] of the same compound?
**A.** 69.4 µM

**Q.** And the TGI [40]?
**A.** > 100 µM

**Q.** What about the TGI [42] of the same compound?
**A.** 78.7 µM

**Q.** What about the TGI [43] of the same compound?
**A.** 72.7 µM

**Q.** What about the TGI [44] of the same compound?
**A.** 52.6 µM

**Q.** What about the TGI [45] of the same compound?
**A.** 36 µM

**Q.** And the TGI [46]?
**A.** 52.1 µM

**Q.** And the TGI [47]?
**A.** 73.1 µM

**Q.** What about the TGI [57] of the same compound?
**A.** 25 µM

**Q.** And the TGI [49]?
**A.** > 100 µM

**Q.** And the TGI [50]?
**A.** > 100 µM

**Q.** And the TGI [51]?
**A.** 62.9 µM

**Q.** What about the TGI [52] of the same compound?
**A.** 42.9 µM

**Q.** And the TGI [53]?
**A.** 64.8 µM
